Data from the supplement of paper PMC10307832.

What was measured:
Assay in all cases: relative viability (nuclei count vs DMSO), 5 days (fraction); higher = more cells survive
[1] = compound: C/C(=N\NC(=S)N1CCC1)/C2=CC=CC=N2 + Cc1nc(Nc2ncc(C(=O)Nc3c(C)cccc3Cl)s2)cc(N2CCN(CCO)CC2)n1 [Dasatinib] (partner 0.075 µM)
Method in brief: (§1)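 The day after seeding in 1536-well plates, lung cancer cell lines were treated by pin tool with a single drug, or with a fixed anchor-drug dose together with five library-drug doses (not always all listed) in √10 steps. After 5 days, a combined fix-and-stain solution (final 0.05% Triton X-100, 1% formaldehyde, 1 ug/ml Hoechst) was added. Nuclei counted on 4× images gave relative viability as treated counts over vehicle counts, reported as the median of duplicate plates.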

[2] = compound: C/C(=N\NC(=S)N1CCC1)/C2=CC=CC=N2 + CC1(C)CCC(c2ccc(Cl)cc2)=C(CN2CCN(c3ccc(C(=O)NS(=O)(=O)c4ccc(N[C@H](CCN5CCOCC5)CSc5ccccc5)c(S(=O)(=O)C(F)(F)F)c4)cc3)CC2)C1 [Navitoclax] (partner 0.5 µM)
Method in brief: as §1

[3] = compound: C/C(=N\NC(=S)N1CCC1)/C2=CC=CC=N2 + O=C(CCCCCCC(=O)Nc1ccccc1)NO [Vorinostat] (partner 1 µM)
Method in brief: as §1

[4] = compound: C/C(=N\NC(=S)N1CCC1)/C2=CC=CC=N2 + C[C@@H](Oc1cc(-c2cnn(C3CCNCC3)c2)cnc1N)c1c(Cl)ccc(F)c1Cl [Crizotinib] (partner 1 µM)
Method in brief: as §1

| Cell Line | relative viability ([1]; first compound 0.05 µM) | relative viability ([1]; first compound 0.1581 µM) | relative viability ([1]; first compound 0.5 µM) | relative viability ([1]; first compound 1.581 µM) | relative viability ([1]; first compound 5 µM) | relative viability ([2]; first compound 0.05 µM) | relative viability ([2]; first compound 0.1581 µM) | relative viability ([2]; first compound 0.5 µM) | relative viability ([2]; first compound 1.581 µM) | relative viability ([2]; first compound 5 µM) | relative viability ([3]; first compound 0.05 µM) | relative viability ([3]; first compound 0.1581 µM) | relative viability ([3]; first compound 0.5 µM) | relative viability ([3]; first compound 1.581 µM) | relative viability ([3]; first compound 5 µM) | relative viability ([4]; first compound 0.05 µM) | relative viability ([4]; first compound 0.1581 µM) | relative viability ([4]; first compound 0.5 µM) | relative viability ([4]; first compound 1.581 µM) | relative viability ([4]; first compound 5 µM) |
| --- | --- | --- | --- | --- | --- | --- | --- | --- | --- | --- | --- | --- | --- | --- | --- | --- | --- | --- | --- | --- |
| H3255 | 0.355 | 0.347 | 0.258 | 0.225 | 0.392 | 0.103 | 0.123 | 0.101 | 0.094 | 0.148 | 0.334 | 0.288 | 0.179 | 0.274 | 0.289 | 0.289 | 0.309 | 0.288 | 0.222 | 0.189 |
| EPLC-272H | 0.086 | 0.079 | 0.117 | 0.0523 | 0.0578 | 0.108 | 0.356 | 0.138 | 0.125 | 0.151 | 0.0931 | 0.159 | 0.149 | 0.0509 | 0.107 | 0.0969 | 0.187 | 0.121 | 0.126 | 0.171 |
| PC-3 [JPC-3] | 0.252 | 0.281 | 0.238 | 0.235 | 0.188 | 0.42 | 0.855 | 0.281 | 0.253 | 0.285 | 0.338 | 0.436 | 0.357 | 0.269 | 0.196 | 0.594 | 0.984 | 0.361 | 0.301 | 0.252 |
| NCI-H1793 | 0.113 | 0.145 | 0.151 | 0.121 | 0.145 | 0.225 | 0.208 | 0.19 | 0.149 | 0.225 | 0.189 | 0.139 | 0.127 | 0.124 | 0.133 | – | – | – | – | – |
| EKVX | 0.186 | 0.174 | 0.164 | 0.172 | 0.192 | 0.127 | 0.131 | 0.119 | 0.132 | 0.137 | 0.196 | 0.223 | 0.186 | 0.205 | 0.221 | 0.142 | 0.159 | 0.121 | 0.137 | 0.159 |
| ChaGo-K-1 | 0.137 | 0.178 | 0.17 | 0.131 | 0.168 | 0.293 | 0.47 | 0.27 | 0.218 | 0.374 | 0.164 | 0.159 | 0.155 | 0.143 | 0.165 | 0.34 | 0.339 | 0.258 | 0.312 | 0.279 |
| NCI-H23 | 0.128 | 0.142 | 0.177 | 0.121 | 0.142 | 0.139 | 0.186 | 0.117 | 0.135 | 0.171 | 0.15 | 0.11 | 0.124 | 0.0929 | 0.102 | 0.134 | 0.15 | 0.129 | 0.105 | 0.114 |
| EMC-BAC-2 | 0.149 | 0.169 | 0.175 | 0.129 | 0.186 | 0.25 | 0.645 | 0.162 | 0.21 | 0.168 | 0.193 | 0.199 | 0.134 | 0.153 | 0.135 | 0.365 | 0.336 | 0.16 | 0.153 | 0.142 |
| LOU-NH91 | 0.35 | 0.37 | 0.27 | 0.367 | 0.382 | 0.275 | 0.308 | 0.253 | 0.225 | 0.278 | 0.577 | 0.588 | 0.566 | 0.388 | 0.374 | 0.515 | 0.471 | 0.476 | 0.45 | 0.472 |
| LU99A | 0.131 | 0.16 | 0.114 | 0.106 | 0.155 | 0.196 | 0.181 | 0.139 | 0.154 | 0.187 | 0.147 | 0.152 | 0.137 | 0.131 | 0.161 | 0.23 | 0.0986 | 0.168 | 0.133 | 0.143 |
| NCI-H1395 | 0.27 | 0.362 | 0.315 | 0.29 | 0.326 | 0.4 | 0.346 | 0.365 | 0.338 | 0.352 | 0.302 | 0.405 | 0.31 | 0.312 | 0.339 | – | – | – | – | – |
| NCI-H460 | 0.0259 | 0.0347 | 0.0269 | 0.0294 | 0.0151 | 0.0277 | 0.0183 | 0.0198 | 0.0147 | 0.0062 | 0.0355 | 0.029 | 0.0302 | 0.03 | 0.0178 | 0.0177 | 0.0116 | 0.014 | 0.0184 | 0.0064 |
| 201T | 0.324 | 0.29 | 0.282 | 0.232 | 0.216 | 0.891 | 1.18 | 0.708 | 0.516 | 0.453 | 0.351 | 0.349 | 0.315 | 0.301 | 0.281 | 0.773 | 0.983 | 0.485 | 0.477 | 0.321 |
| NCI-H1944 | 0.139 | 0.151 | 0.153 | 0.128 | 0.127 | 0.684 | 0.988 | 0.392 | 0.189 | 0.18 | 0.17 | 0.154 | 0.137 | 0.126 | 0.135 | 0.737 | 0.909 | 0.221 | 0.164 | 0.149 |
| NCI-H2405 | 0.219 | 0.226 | 0.253 | 0.228 | 0.231 | 0.0935 | 0.0799 | 0.114 | 0.256 | 0.246 | 0.241 | 0.267 | 0.252 | 0.217 | 0.222 | 0.26 | 0.29 | 0.307 | 0.25 | 0.258 |
| NCI-H1703 | – | – | – | – | – | 0.124 | 0.134 | 0.156 | 0.124 | 0.122 | – | – | – | – | – | 0.15 | 0.103 | 0.0957 | 0.115 | 0.0425 |
| NCI-H1755 | 0.16 | 0.202 | 0.157 | 0.198 | 0.247 | 0.321 | 0.928 | 0.142 | 0.18 | 0.186 | 0.294 | 0.226 | 0.223 | 0.233 | 0.225 | 0.753 | 0.664 | 0.16 | 0.174 | 0.176 |
